Source: patent publication US20190151277A1, “USES OF BIOACTIVE LIPIDS” (NESTEC S.A., priority 2014, published 2019)

Experiments:
Format in all cases: cell-based
human islets [1] = experiment: Acute insulin secretion assay with human islets from a lean non-diabetic donor; settings: 2 mM and 20 mM glucose, 15-deoxy-Δ12,14-PGJ2-2-G at 250 μM
Protocol: Insulin secretion assay was performed in low glucose (2 mM) and high glucose (20 mM) conditions with human islets from a lean non-diabetic donor. […] Both bioactive lipids improved glucose stimulated insulin release acutely. The results are expressed as ng secreted insulin per 10 islets.

mouse islets = experiment: GSIS in mouse islets after 72 hours treatment; settings: 72 hours at 50 μM, 2 mM and 20 mM glucose
Protocol: (§1) After PGD2G treatment, glucose stimulated insulin release was measured in low glucose (2 mM) and high glucose (20 mM) conditions in KRB solution. The insulin release is expressed as released from the total content of insulin in Ins1E cells and mouse islets.

Ins1E cells = experiment: GSIS in Ins1E cells after 72 hours treatment; settings: 72 hours at 50 μM, 2 mM and 20 mM glucose
Protocol: as §1

[2] = Acute glucose stimulated insulin release normalized to total protein content; settings: 2 mM and 20 mM glucose, 470 μM, 2.3 nM, 230 nM bioactive lipid
Protocol: Glucose stimulated insulin release was measured in low glucose (2 mM) and high glucose (20 mM) in the presence of various concentrations (470 μM, 2.3 nM, 230 nM) of the bioactive lipid. The bioactive lipid improved glucose stimulated insulin release particularly at concentrations from 2.5 nM to 250 nM. The result are presented as insulin release normalized to total protein content.

human islets [3] = experiment: Beta cell function and incretin response in human islets from donors; settings: lean type 2 diabetic and non-diabetic obese donors, 50 μM, 72 hours
Protocol: Glucose stimulated insulin release was measured in low glucose (2 mM), high glucose (20 mM) and high glucose (20 mM)+0.1 uM Exendin4

human islets [4] = experiment: Glucose stimulated insulin release in human islets after cytokine-induced dysfunction; settings: human islets of three donors, 50 μM 72 hours, cytokine mix last 48 hours
Protocol: During the last 48 hours, the cytokine mix was added (IL1beta 10 ng/ml, TNF alpha 25 ng/ml and INFgamma 10 ng/ml). Glucose stimulated insulin release was measured in low glucose (2 mM) and high glucose (20 mM) conditions. The bioactive lipid was able to improve glucose stimulated insulin release after cytokine-induced dysfunction.

human H716 cells = experiment: GLP-1 secretion assay in human H716 cells; settings: 0.23 nM to 2.3 nM
Protocol: GLP-1 secretion assay was performed using human H716 cells in the presence of various concentration of the bioactive lipid from 0.23 nM to 2.3 nM.

SMILES	insulin secretion (ng secreted insulin per 10 islets) (human islets [1])	glucose stimulated insulin release (of total insulin content) (mouse islets)	glucose stimulated insulin release (of total insulin content) (Ins1E cells)	insulin release normalized to total protein content [2]	beta cell function (glucose stimulated insulin release) (human islets [3])	incretin response (20 mM glucose + 0.1 uM Exendin4) (human islets [3])	glucose stimulated insulin release after cytokine-induced dysfunction (human islets [4])	GLP1 release normalized to total protein content (human H716 cells)
CCCCC/C=C/C=C1/C(=O)C=C[C@@H]1C/C=C\CCCC(=O)OC(CO)CO [15-deoxy-Δ12,14-PGJ2-2-G, 11-oxo-5Z,9,12E,4E-prostatetraenoic acid-2-glycerol ester]	increased insulin secretion both with and without the presence of a white adipose tissue (WAT) fraction							
CCCCC[C@H](O)/C=C/[C@H]1C(=O)C[C@H](O)[C@@H]1C/C=C\CCCC(=O)OCC(O)CO (stereo partly drawn) [PGD2G, 9a, 15S-dihydroxy-11-oxo-5Z,13E-prostadienoic acid 1-glyceryl ester]	also increased insulin secretion compared to control tissues	increased insulin secretion	increased insulin secretion	acutely stimulated insulin secretion upon stimulation with glucose	improved beta cell function	improved	protected human islets against cytokine induced dysfunction	increased GLP1 secretion
